Legend:
Assay type in all cases: physicochemical
[1] = Partition coefficient (logP); settings: octanol/water
[2] = Partition coefficient of h-rotamer in octanol water system
[3] = Partition coefficient of t-rotamer in octanol water system
[4] = Partition coefficient of g-rotamer in octanol water system

## CC(C)(C)NCC(O)c1cc(Cl)c(N)c(Cl)c1 (centres undefined) [CLENBUTEROL]
[1]
  logP: 2.71
[2]
  logP: 2.57
[3]
  logP: 2.87
[4]
  logP: 2.14

From ChEMBL document CHEMBL1144929, “Determination of conformer-specific partition coefficients in octanol/water systems” (J Med Chem, 2003)
